Source: patent US8772480B2, “Inhibitors of PI3 kinase and/or mTOR” (priority 2009, dated 2014)

What follows are compounds tested against ProfilerPro Kinase Selectivity Assay Kit kinases (Homo sapiens, UniProt P23443). Conditions: p70S6K; 1 μM compound concentration.
Assay type: biochemical
Experimental: (§1) Compounds were profiled using a LabChip® EZ Reader II platform and a ProfilerPro Kinase Selectivity Assay Kit (Caliper Lifesciences Inc., Hopkinton, Mass.). Compounds were tested at a concentration of 1 M in duplicate, with mean data reported as percent of control (POC).

SMILES | POC (Percent of control) p70S6K [POC]
Cc1nc(N)nc(-c2cccnc2Nc2cccc3[nH]ccc23)n1 [Example 22, N-(3-(4-Amino-6-Methyl-1,3,5-Triazin-2-yl)Pyridin-2-yl)-1H-Indol-4-Amine] | 74

These compounds were tested against ProfilerPro Kinase Selectivity Assay Kit kinases (Homo sapiens, UniProt O14757). Conditions: CHK1; 1 μM compound concentration.
Assay type: biochemical
Experimental: as §1

SMILES | POC (Percent of control) CHK1 [POC]
Cc1nc(N)nc(-c2cccnc2Nc2cccc3[nH]ccc23)n1 [Example 22, N-(3-(4-Amino-6-Methyl-1,3,5-Triazin-2-yl)Pyridin-2-yl)-1H-Indol-4-Amine] | 103

What follows are compounds tested against ProfilerPro Kinase Selectivity Assay Kit kinases (Homo sapiens, UniProt P06239). Conditions: LCK; 1 μM compound concentration.
Assay type: biochemical
Experimental: as §1

SMILES | POC (Percent of control) LCK [POC]
Cc1nc(N)nc(-c2cccnc2Nc2cccc3[nH]ccc23)n1 [Example 22, N-(3-(4-Amino-6-Methyl-1,3,5-Triazin-2-yl)Pyridin-2-yl)-1H-Indol-4-Amine] | 97

The compounds below were run against ProfilerPro Kinase Selectivity Assay Kit kinases (Homo sapiens, UniProt P28482). Conditions: ERK2; 1 μM compound concentration.
Chain of ProfilerPro Kinase Selectivity Assay Kit kinases (Homo sapiens, UniProt P28482) (P28482 2-360 limits assumed): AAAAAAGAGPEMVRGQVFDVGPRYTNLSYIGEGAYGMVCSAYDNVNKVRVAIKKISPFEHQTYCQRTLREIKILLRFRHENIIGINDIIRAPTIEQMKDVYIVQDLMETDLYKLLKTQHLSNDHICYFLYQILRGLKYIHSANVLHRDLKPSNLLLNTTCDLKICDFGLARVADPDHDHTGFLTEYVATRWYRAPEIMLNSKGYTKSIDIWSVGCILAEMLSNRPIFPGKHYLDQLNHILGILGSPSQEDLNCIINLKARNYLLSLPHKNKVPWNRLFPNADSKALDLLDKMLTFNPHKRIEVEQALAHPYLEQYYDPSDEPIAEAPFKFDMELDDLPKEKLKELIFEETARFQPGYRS
Assay type: biochemical
Experimental: as §1

SMILES | POC (Percent of control) ERK2 [POC]
Cc1nc(N)nc(-c2cccnc2Nc2cccc3[nH]ccc23)n1 [Example 22, N-(3-(4-Amino-6-Methyl-1,3,5-Triazin-2-yl)Pyridin-2-yl)-1H-Indol-4-Amine] | 103

These compounds were tested against ProfilerPro Kinase Selectivity Assay Kit kinases (Homo sapiens, UniProt Q13627). Conditions: DYRK1a; 1 μM compound concentration.
Assay type: biochemical
Experimental: as §1

SMILES | POC (Percent of control) DYRK1a [POC]
Cc1nc(N)nc(-c2cccnc2Nc2cccc3[nH]ccc23)n1 [Example 22, N-(3-(4-Amino-6-Methyl-1,3,5-Triazin-2-yl)Pyridin-2-yl)-1H-Indol-4-Amine] | 96

Each compound was assayed on ProfilerPro Kinase Selectivity Assay Kit kinases. Conditions: AMPK; 1 μM compound concentration.
Assay type: biochemical
Experimental: as §1

SMILES | POC (Percent of control) AMPK [POC]
Cc1nc(N)nc(-c2cccnc2Nc2cccc3[nH]ccc23)n1 [Example 22, N-(3-(4-Amino-6-Methyl-1,3,5-Triazin-2-yl)Pyridin-2-yl)-1H-Indol-4-Amine] | 92

Same assay, conditions: CAMK2; 1 μM compound concentration

SMILES | POC (Percent of control) CAMK2 [POC]
Cc1nc(N)nc(-c2cccnc2Nc2cccc3[nH]ccc23)n1 [Example 22, N-(3-(4-Amino-6-Methyl-1,3,5-Triazin-2-yl)Pyridin-2-yl)-1H-Indol-4-Amine] | 118

Same assay, conditions: PKC beta2; 1 μM compound concentration

SMILES | POC (Percent of control) PKC beta2 [POC]
Cc1nc(N)nc(-c2cccnc2Nc2cccc3[nH]ccc23)n1 [Example 22, N-(3-(4-Amino-6-Methyl-1,3,5-Triazin-2-yl)Pyridin-2-yl)-1H-Indol-4-Amine] | 96

Same assay, conditions: TAK1; 1 μM compound concentration

SMILES | POC (Percent of control) TAK1 [POC]
Cc1nc(N)nc(-c2cccnc2Nc2cccc3[nH]ccc23)n1 [Example 22, N-(3-(4-Amino-6-Methyl-1,3,5-Triazin-2-yl)Pyridin-2-yl)-1H-Indol-4-Amine] | 99

These compounds were tested against ProfilerPro Kinase Selectivity Assay Kit kinases (Homo sapiens, UniProt P31749). Conditions: AKT1; 1 μM compound concentration.
Assay type: biochemical
Experimental: as §1

SMILES | POC (Percent of control) AKT1 [POC]
Cc1nc(N)nc(-c2cccnc2Nc2cccc3[nH]ccc23)n1 [Example 22, N-(3-(4-Amino-6-Methyl-1,3,5-Triazin-2-yl)Pyridin-2-yl)-1H-Indol-4-Amine] | 102

Each compound was assayed against ProfilerPro Kinase Selectivity Assay Kit kinases (Homo sapiens, UniProt P36888). Conditions: FLT3; 1 μM compound concentration.
Assay type: biochemical
Experimental: as §1

SMILES | POC (Percent of control) FLT3 [POC]
Cc1nc(N)nc(-c2cccnc2Nc2cccc3[nH]ccc23)n1 [Example 22, N-(3-(4-Amino-6-Methyl-1,3,5-Triazin-2-yl)Pyridin-2-yl)-1H-Indol-4-Amine] | 105

The compounds below were run against ProfilerPro Kinase Selectivity Assay Kit kinases (Homo sapiens, UniProt O96017). Conditions: CHK2; 1 μM compound concentration.
Assay type: biochemical
Experimental: as §1

SMILES | POC (Percent of control) CHK2 [POC]
Cc1nc(N)nc(-c2cccnc2Nc2cccc3[nH]ccc23)n1 [Example 22, N-(3-(4-Amino-6-Methyl-1,3,5-Triazin-2-yl)Pyridin-2-yl)-1H-Indol-4-Amine] | 102

These compounds were tested against ProfilerPro Kinase Selectivity Assay Kit kinases (Homo sapiens, UniProt P08581). Conditions: cMET; 1 μM compound concentration.
Chain of ProfilerPro Kinase Selectivity Assay Kit kinases (Homo sapiens, UniProt P08581) (P08581 25-1390 limits assumed): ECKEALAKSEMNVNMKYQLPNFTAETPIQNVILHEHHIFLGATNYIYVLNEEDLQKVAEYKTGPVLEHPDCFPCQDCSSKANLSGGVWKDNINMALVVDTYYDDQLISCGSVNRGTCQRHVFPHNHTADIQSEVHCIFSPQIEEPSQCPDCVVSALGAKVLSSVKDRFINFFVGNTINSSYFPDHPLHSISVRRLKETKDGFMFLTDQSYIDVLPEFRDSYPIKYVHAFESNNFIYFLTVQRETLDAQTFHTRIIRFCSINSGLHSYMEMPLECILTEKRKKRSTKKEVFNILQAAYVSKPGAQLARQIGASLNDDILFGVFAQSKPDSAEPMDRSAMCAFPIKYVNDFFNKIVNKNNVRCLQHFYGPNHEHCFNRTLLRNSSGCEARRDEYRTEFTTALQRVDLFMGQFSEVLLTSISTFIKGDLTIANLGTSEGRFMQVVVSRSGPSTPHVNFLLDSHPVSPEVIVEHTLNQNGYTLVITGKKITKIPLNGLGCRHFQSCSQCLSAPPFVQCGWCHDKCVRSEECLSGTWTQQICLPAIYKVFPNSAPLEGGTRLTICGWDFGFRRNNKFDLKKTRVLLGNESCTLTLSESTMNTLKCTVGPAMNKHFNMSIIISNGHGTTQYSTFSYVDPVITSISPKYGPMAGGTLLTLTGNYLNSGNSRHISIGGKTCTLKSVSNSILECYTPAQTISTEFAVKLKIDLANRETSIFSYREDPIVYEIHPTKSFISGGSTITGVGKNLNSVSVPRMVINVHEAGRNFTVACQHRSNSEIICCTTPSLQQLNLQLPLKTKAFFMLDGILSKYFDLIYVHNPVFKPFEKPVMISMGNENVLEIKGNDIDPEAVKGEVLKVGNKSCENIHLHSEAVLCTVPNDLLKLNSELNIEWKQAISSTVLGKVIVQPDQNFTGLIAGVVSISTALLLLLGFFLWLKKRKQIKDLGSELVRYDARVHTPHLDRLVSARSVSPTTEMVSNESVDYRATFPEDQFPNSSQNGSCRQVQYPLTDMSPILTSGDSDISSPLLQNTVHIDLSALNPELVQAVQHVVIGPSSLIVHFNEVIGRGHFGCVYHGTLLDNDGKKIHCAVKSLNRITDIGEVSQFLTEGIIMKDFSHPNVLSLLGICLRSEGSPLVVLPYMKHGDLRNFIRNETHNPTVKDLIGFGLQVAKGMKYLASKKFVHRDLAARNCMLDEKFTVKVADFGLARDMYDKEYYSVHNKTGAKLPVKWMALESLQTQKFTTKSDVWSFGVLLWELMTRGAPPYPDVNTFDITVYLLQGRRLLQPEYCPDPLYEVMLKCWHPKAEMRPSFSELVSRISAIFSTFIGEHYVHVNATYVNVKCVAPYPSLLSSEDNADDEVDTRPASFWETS
Assay type: biochemical
Experimental: as §1

SMILES | POC (Percent of control) cMET [POC]
Cc1nc(N)nc(-c2cccnc2Nc2cccc3[nH]ccc23)n1 [Example 22, N-(3-(4-Amino-6-Methyl-1,3,5-Triazin-2-yl)Pyridin-2-yl)-1H-Indol-4-Amine] | 106

What follows are compounds tested against ProfilerPro Kinase Selectivity Assay Kit kinases (Homo sapiens, UniProt P00519). Conditions: ABL; 1 μM compound concentration.
Assay type: biochemical
Experimental: as §1

SMILES | POC (Percent of control) ABL [POC]
Cc1nc(N)nc(-c2cccnc2Nc2cccc3[nH]ccc23)n1 [Example 22, N-(3-(4-Amino-6-Methyl-1,3,5-Triazin-2-yl)Pyridin-2-yl)-1H-Indol-4-Amine] | 103

The compounds below were run against ProfilerPro Kinase Selectivity Assay Kit kinases (Homo sapiens, UniProt P04049). Conditions: cRAF; 1 μM compound concentration.
Assay type: biochemical
Experimental: as §1

SMILES | POC (Percent of control) cRAF [POC]
Cc1nc(N)nc(-c2cccnc2Nc2cccc3[nH]ccc23)n1 [Example 22, N-(3-(4-Amino-6-Methyl-1,3,5-Triazin-2-yl)Pyridin-2-yl)-1H-Indol-4-Amine] | 98

Each compound was assayed against ProfilerPro Kinase Selectivity Assay Kit kinases (Homo sapiens, UniProt Q06187). Conditions: BTK; 1 μM compound concentration.
Chain of ProfilerPro Kinase Selectivity Assay Kit kinases (Homo sapiens, UniProt Q06187) (Q06187 2-659 limits assumed): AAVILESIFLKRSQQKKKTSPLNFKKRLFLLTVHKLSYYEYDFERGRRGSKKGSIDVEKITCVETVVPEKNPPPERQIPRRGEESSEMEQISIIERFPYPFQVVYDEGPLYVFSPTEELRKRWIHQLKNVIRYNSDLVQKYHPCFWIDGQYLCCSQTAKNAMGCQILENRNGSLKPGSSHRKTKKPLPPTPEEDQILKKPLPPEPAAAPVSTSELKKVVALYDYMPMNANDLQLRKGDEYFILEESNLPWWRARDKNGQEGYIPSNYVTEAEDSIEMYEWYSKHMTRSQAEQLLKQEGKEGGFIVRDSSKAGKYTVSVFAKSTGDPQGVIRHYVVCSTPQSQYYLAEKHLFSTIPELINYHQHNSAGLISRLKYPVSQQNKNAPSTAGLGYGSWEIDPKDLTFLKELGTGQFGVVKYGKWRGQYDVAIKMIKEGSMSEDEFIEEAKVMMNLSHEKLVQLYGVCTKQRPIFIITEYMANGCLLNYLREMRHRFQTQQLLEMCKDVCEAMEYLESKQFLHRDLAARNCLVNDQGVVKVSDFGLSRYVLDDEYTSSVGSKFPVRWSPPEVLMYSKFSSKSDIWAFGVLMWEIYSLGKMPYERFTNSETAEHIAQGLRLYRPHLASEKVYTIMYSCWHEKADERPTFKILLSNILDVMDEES
Assay type: biochemical
Experimental: as §1

SMILES | POC (Percent of control) BTK [POC]
Cc1nc(N)nc(-c2cccnc2Nc2cccc3[nH]ccc23)n1 [Example 22, N-(3-(4-Amino-6-Methyl-1,3,5-Triazin-2-yl)Pyridin-2-yl)-1H-Indol-4-Amine] | 99

These compounds were tested against ProfilerPro Kinase Selectivity Assay Kit kinases (Homo sapiens, UniProt Q16566). Conditions: CAMK4; 1 μM compound concentration.
Assay type: biochemical
Experimental: as §1

SMILES | POC (Percent of control) CAMK4 [POC]
Cc1nc(N)nc(-c2cccnc2Nc2cccc3[nH]ccc23)n1 [Example 22, N-(3-(4-Amino-6-Methyl-1,3,5-Triazin-2-yl)Pyridin-2-yl)-1H-Indol-4-Amine] | 95

The compounds below were run against ProfilerPro Kinase Selectivity Assay Kit kinases (Homo sapiens, UniProt Q9P1W9). Conditions: PIM2; 1 μM compound concentration.
Assay type: biochemical
Experimental: as §1

SMILES | POC (Percent of control) PIM2 [POC]
Cc1nc(N)nc(-c2cccnc2Nc2cccc3[nH]ccc23)n1 [Example 22, N-(3-(4-Amino-6-Methyl-1,3,5-Triazin-2-yl)Pyridin-2-yl)-1H-Indol-4-Amine] | 97

What follows are compounds tested against ProfilerPro Kinase Selectivity Assay Kit kinases (Homo sapiens, UniProt Q13976). Conditions: PKGa2; 1 μM compound concentration.
Chain of ProfilerPro Kinase Selectivity Assay Kit kinases (Homo sapiens, UniProt Q13976) (Q13976 2-671 limits assumed): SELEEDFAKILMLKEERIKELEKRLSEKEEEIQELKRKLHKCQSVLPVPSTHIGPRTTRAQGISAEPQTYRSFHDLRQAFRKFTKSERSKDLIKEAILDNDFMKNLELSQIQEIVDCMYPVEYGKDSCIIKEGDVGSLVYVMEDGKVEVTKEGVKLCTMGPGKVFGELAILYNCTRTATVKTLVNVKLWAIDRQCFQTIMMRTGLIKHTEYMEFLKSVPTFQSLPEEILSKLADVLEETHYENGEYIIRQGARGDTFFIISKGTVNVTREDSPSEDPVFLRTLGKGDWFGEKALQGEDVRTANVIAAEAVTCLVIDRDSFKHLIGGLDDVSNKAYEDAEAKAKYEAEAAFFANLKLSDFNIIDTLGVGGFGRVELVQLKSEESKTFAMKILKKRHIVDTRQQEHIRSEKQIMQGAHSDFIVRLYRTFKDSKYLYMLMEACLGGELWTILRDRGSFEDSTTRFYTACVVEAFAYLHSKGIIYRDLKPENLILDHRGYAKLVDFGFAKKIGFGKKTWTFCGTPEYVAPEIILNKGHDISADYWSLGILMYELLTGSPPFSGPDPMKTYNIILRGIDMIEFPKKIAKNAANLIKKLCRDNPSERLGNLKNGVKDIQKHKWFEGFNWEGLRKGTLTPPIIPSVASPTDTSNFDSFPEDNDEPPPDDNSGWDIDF
Assay type: biochemical
Experimental: as §1

SMILES | POC (Percent of control) PKGa2 [POC]
Cc1nc(N)nc(-c2cccnc2Nc2cccc3[nH]ccc23)n1 [Example 22, N-(3-(4-Amino-6-Methyl-1,3,5-Triazin-2-yl)Pyridin-2-yl)-1H-Indol-4-Amine] | 93

What follows are compounds tested against ProfilerPro Kinase Selectivity Assay Kit kinases (Homo sapiens, UniProt P11362). Conditions: FGFR1; 1 μM compound concentration.
Assay type: biochemical
Experimental: as §1

SMILES | POC (Percent of control) FGFR1 [POC]
Cc1nc(N)nc(-c2cccnc2Nc2cccc3[nH]ccc23)n1 [Example 22, N-(3-(4-Amino-6-Methyl-1,3,5-Triazin-2-yl)Pyridin-2-yl)-1H-Indol-4-Amine] | 96

What follows are compounds tested against ProfilerPro Kinase Selectivity Assay Kit kinases (Homo sapiens, UniProt P24941). Conditions: CDK2; 1 μM compound concentration.
Assay type: biochemical
Experimental: as §1

SMILES | POC (Percent of control) CDK2 [POC]
Cc1nc(N)nc(-c2cccnc2Nc2cccc3[nH]ccc23)n1 [Example 22, N-(3-(4-Amino-6-Methyl-1,3,5-Triazin-2-yl)Pyridin-2-yl)-1H-Indol-4-Amine] | 107

What follows are compounds tested against ProfilerPro Kinase Selectivity Assay Kit kinases (Homo sapiens, UniProt O00141). Conditions: SGK1; 1 μM compound concentration.
Assay type: biochemical
Experimental: as §1

SMILES | POC (Percent of control) SGK1 [POC]
Cc1nc(N)nc(-c2cccnc2Nc2cccc3[nH]ccc23)n1 [Example 22, N-(3-(4-Amino-6-Methyl-1,3,5-Triazin-2-yl)Pyridin-2-yl)-1H-Indol-4-Amine] | 99

These compounds were tested against ProfilerPro Kinase Selectivity Assay Kit kinases (Homo sapiens, UniProt Q8IW41). Conditions: PRAK; 1 μM compound concentration.
Assay type: biochemical
Experimental: as §1

SMILES | POC (Percent of control) PRAK [POC]
Cc1nc(N)nc(-c2cccnc2Nc2cccc3[nH]ccc23)n1 [Example 22, N-(3-(4-Amino-6-Methyl-1,3,5-Triazin-2-yl)Pyridin-2-yl)-1H-Indol-4-Amine] | 106

The compounds below were run against ProfilerPro Kinase Selectivity Assay Kit kinases (Homo sapiens, UniProt O75582). Conditions: MSK1; 1 μM compound concentration.
Assay type: biochemical
Experimental: as §1

SMILES | POC (Percent of control) MSK1 [POC]
Cc1nc(N)nc(-c2cccnc2Nc2cccc3[nH]ccc23)n1 [Example 22, N-(3-(4-Amino-6-Methyl-1,3,5-Triazin-2-yl)Pyridin-2-yl)-1H-Indol-4-Amine] | 103

What follows are compounds tested against ProfilerPro Kinase Selectivity Assay Kit kinases (Homo sapiens, UniProt P27361). Conditions: ERK1; 1 μM compound concentration.
Assay type: biochemical
Experimental: as §1

SMILES | POC (Percent of control) ERK1 [POC]
Cc1nc(N)nc(-c2cccnc2Nc2cccc3[nH]ccc23)n1 [Example 22, N-(3-(4-Amino-6-Methyl-1,3,5-Triazin-2-yl)Pyridin-2-yl)-1H-Indol-4-Amine] | 99

These compounds were tested against ProfilerPro Kinase Selectivity Assay Kit kinases (Homo sapiens, UniProt Q9P0L2). Conditions: MARK1; 1 μM compound concentration.
Assay type: biochemical
Experimental: as §1

SMILES | POC (Percent of control) MARK1 [POC]
Cc1nc(N)nc(-c2cccnc2Nc2cccc3[nH]ccc23)n1 [Example 22, N-(3-(4-Amino-6-Methyl-1,3,5-Triazin-2-yl)Pyridin-2-yl)-1H-Indol-4-Amine] | 109

The compounds below were run against ProfilerPro Kinase Selectivity Assay Kit kinases (Homo sapiens, UniProt P35968). Conditions: KDR; 1 μM compound concentration.
Chain of ProfilerPro Kinase Selectivity Assay Kit kinases (Homo sapiens, UniProt P35968) (P35968 20-1356 limits assumed): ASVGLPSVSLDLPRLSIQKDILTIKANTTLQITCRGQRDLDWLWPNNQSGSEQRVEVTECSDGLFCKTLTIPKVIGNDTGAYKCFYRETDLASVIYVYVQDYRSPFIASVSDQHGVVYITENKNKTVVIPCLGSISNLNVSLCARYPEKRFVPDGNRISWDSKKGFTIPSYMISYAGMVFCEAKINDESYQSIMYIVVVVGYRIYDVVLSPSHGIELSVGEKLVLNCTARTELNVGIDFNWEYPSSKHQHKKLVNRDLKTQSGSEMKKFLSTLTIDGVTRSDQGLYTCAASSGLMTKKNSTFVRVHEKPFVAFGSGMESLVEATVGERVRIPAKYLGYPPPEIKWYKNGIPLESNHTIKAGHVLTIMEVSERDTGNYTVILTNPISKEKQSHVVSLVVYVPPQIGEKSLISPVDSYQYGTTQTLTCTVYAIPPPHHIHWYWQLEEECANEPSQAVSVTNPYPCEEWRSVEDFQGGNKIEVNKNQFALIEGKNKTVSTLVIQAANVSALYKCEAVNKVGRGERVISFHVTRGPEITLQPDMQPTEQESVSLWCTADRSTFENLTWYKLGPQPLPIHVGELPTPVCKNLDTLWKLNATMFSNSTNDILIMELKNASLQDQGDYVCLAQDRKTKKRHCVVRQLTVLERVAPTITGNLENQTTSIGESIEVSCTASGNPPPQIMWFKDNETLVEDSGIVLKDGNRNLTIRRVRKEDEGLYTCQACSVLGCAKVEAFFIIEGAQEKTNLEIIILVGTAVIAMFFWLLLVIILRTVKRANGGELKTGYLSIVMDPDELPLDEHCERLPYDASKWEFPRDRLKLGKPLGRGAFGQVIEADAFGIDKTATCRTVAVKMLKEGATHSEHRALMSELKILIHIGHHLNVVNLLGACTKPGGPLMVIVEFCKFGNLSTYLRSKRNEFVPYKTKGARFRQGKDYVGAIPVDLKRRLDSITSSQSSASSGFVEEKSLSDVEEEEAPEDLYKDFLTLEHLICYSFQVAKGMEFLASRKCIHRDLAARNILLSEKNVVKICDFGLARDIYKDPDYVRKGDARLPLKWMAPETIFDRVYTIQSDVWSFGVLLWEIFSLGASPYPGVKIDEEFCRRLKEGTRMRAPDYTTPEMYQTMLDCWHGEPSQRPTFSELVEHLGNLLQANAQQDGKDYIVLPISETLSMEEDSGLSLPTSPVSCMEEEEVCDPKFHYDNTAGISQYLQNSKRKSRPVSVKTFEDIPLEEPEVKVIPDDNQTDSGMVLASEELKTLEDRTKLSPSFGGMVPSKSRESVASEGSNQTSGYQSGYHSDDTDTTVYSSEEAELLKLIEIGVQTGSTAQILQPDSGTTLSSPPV
Assay type: biochemical
Experimental: as §1

SMILES | POC (Percent of control) KDR [POC]
Cc1nc(N)nc(-c2cccnc2Nc2cccc3[nH]ccc23)n1 [Example 22, N-(3-(4-Amino-6-Methyl-1,3,5-Triazin-2-yl)Pyridin-2-yl)-1H-Indol-4-Amine] | 106

Each compound was assayed against ProfilerPro Kinase Selectivity Assay Kit kinases (Homo sapiens, UniProt Q16539). Conditions: p38 alpha; 1 μM compound concentration.
Assay type: biochemical
Experimental: as §1

SMILES | POC (Percent of control) p38 alpha [POC]
Cc1nc(N)nc(-c2cccnc2Nc2cccc3[nH]ccc23)n1 [Example 22, N-(3-(4-Amino-6-Methyl-1,3,5-Triazin-2-yl)Pyridin-2-yl)-1H-Indol-4-Amine] | 101

Each compound was assayed against ProfilerPro Kinase Selectivity Assay Kit kinases (Homo sapiens, UniProt Q05513). Conditions: PKC zeta; 1 μM compound concentration.
Assay type: biochemical
Experimental: as §1

SMILES | POC (Percent of control) PKC zeta [POC]
Cc1nc(N)nc(-c2cccnc2Nc2cccc3[nH]ccc23)n1 [Example 22, N-(3-(4-Amino-6-Methyl-1,3,5-Triazin-2-yl)Pyridin-2-yl)-1H-Indol-4-Amine] | 98

These compounds were tested against ProfilerPro Kinase Selectivity Assay Kit kinases (Homo sapiens, UniProt O75116). Conditions: ROCK2; 1 μM compound concentration.
Assay type: biochemical
Experimental: as §1

SMILES | POC (Percent of control) ROCK2 [POC]
Cc1nc(N)nc(-c2cccnc2Nc2cccc3[nH]ccc23)n1 [Example 22, N-(3-(4-Amino-6-Methyl-1,3,5-Triazin-2-yl)Pyridin-2-yl)-1H-Indol-4-Amine] | 94

These compounds were tested against ProfilerPro Kinase Selectivity Assay Kit kinases (Homo sapiens, UniProt Q9BZL6). Conditions: PKD2; 1 μM compound concentration.
Assay type: biochemical
Experimental: as §1

SMILES | POC (Percent of control) PKD2 [POC]
Cc1nc(N)nc(-c2cccnc2Nc2cccc3[nH]ccc23)n1 [Example 22, N-(3-(4-Amino-6-Methyl-1,3,5-Triazin-2-yl)Pyridin-2-yl)-1H-Indol-4-Amine] | 99

The compounds below were run against ProfilerPro Kinase Selectivity Assay Kit kinases (Homo sapiens, UniProt P49841). Conditions: GSK3 beta; 1 μM compound concentration.
Assay type: biochemical
Experimental: as §1

SMILES | POC (Percent of control) GSK3 beta [POC]
Cc1nc(N)nc(-c2cccnc2Nc2cccc3[nH]ccc23)n1 [Example 22, N-(3-(4-Amino-6-Methyl-1,3,5-Triazin-2-yl)Pyridin-2-yl)-1H-Indol-4-Amine] | 94

These compounds were tested against ProfilerPro Kinase Selectivity Assay Kit kinases (Homo sapiens, UniProt P49137). Conditions: MAPKAPK2; 1 μM compound concentration.
Assay type: biochemical
Experimental: as §1

SMILES | POC (Percent of control) MAPKAPK2 [POC]
Cc1nc(N)nc(-c2cccnc2Nc2cccc3[nH]ccc23)n1 [Example 22, N-(3-(4-Amino-6-Methyl-1,3,5-Triazin-2-yl)Pyridin-2-yl)-1H-Indol-4-Amine] | 98

These compounds were tested against ProfilerPro Kinase Selectivity Assay Kit kinases (Homo sapiens, UniProt P07948). Conditions: LYN; 1 μM compound concentration.
Chain of ProfilerPro Kinase Selectivity Assay Kit kinases (Homo sapiens, UniProt P07948) (P07948 2-512 limits assumed): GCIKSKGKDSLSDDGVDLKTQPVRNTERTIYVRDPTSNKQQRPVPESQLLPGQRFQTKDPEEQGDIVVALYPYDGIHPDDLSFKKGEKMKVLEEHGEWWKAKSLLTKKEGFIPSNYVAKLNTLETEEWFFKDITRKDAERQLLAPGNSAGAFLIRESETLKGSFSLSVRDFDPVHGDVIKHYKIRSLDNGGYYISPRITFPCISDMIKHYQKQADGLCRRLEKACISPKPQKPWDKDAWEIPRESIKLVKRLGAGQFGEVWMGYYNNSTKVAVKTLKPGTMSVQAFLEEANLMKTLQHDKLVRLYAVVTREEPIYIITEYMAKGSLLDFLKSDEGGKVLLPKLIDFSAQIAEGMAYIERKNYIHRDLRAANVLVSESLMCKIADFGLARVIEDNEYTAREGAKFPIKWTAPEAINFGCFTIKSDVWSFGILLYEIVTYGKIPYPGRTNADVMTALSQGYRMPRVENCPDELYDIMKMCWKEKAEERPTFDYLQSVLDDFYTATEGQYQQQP
Assay type: biochemical
Experimental: as §1

SMILES | POC (Percent of control) LYN [POC]
Cc1nc(N)nc(-c2cccnc2Nc2cccc3[nH]ccc23)n1 [Example 22, N-(3-(4-Amino-6-Methyl-1,3,5-Triazin-2-yl)Pyridin-2-yl)-1H-Indol-4-Amine] | 108
